Experiment in all cases: DTP human tumour cell line panel, 48 h
For assay [1], the system named is IGROV-1.
Assay [2] concerns SNB-75.
Assay [3] concerns NCI-H522.
The subject of assay [4] is SK-MEL-28.
Assay [5] relates to ACHN.
The test system of assay [6] is SNB-19.
In assay [7] the test system is HT-29.
In assay [8] the test system is HCT-116.
The subject of assay [9] is SR.
Assay [10] deals with MOLT-4.
Assay [11] concerns HCC 2998.
The test system of assay [12] is SK-MEL-5.
In assay [13] the test system is NCI-H226.

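The compound was tested at five concentrations on cells cultured in 96-well plates, with a 48-hour exposure period. The concentration for 50% growth inhibition is given as GI50.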 Calls of active or inactive are those of the source. Rule as the data show it: active = GI50 up to about 1.1 µM and inactive = higher. Where only a bound is given, the exact number is not on record here.

Broadly, the GI50 is the concentration that inhibits growth by half.

On to `NC1=NS(=O)(=O)Nc2nc(-c3cccs3)[nH]c21`, for which the GI50 in assay [1], in [2], in [3], in assay [4], in [5] and in assay [6] was > 100 µM (inactive) throughout. In addition, the GI50 in assay [7], in [8], in assay [9], in assay [10], in assay [11] and in assay [12] was > 100 µM (inactive) in each case.

For the compound `COc1ccc(/C(C#N)=C2/O/C(=N/N)C(c3ccc(OC)c(OC)c3)C2=O)cc1OC` (configuration not stated), the GI50 in assay [1], in assay [2], in [3], in assay [4], in assay [5] and in assay [7] was > 100 µM (inactive) throughout. Moreover, the GI50 in [8], in assay [9], in assay [13], in assay [10] and in assay [12] was > 100 µM (inactive) each time.

Take `COC(=O)C(Cc1cc(OC)c(OC)c(OC)c1)C(=O)OC`: the GI50 in assay [1], in assay [3], in assay [4], in assay [5], in assay [7] and in assay [9] was > 320 µM (inactive) throughout. Further, the GI50 in [10], in assay [11] and in assay [12] was > 320 µM (inactive) in each case.

On to `Cc1cn2cc(-c3ccncc3)nc2s1`, for which the GI50 in assay [1], in assay [2], in [3], in [4], in assay [5] and in assay [6] was > 100 µM (inactive) in each case. In addition, the GI50 in assay [7] is > 100 µM (inactive); in [8] it was > 83 µM (inactive); in assay [13], > 100 µM (inactive); in assay [10], > 100 µM (inactive); in assay [11] it was > 100 µM (inactive); in [12], > 100 µM (inactive).

With `Cc1c(C(=O)/C=C/c2ccccc2[N+](=O)[O-])[n+]([O-])c2ccccc2[n+]1[O-]`, the GI50 is 10.6 µM (inactive) in assay [1]; 13.2 µM (inactive) in assay [2]; 3.94 µM (inactive) in [3]; 11.7 µM (inactive) in assay [4]; 10.6 µM (inactive) in assay [5]; 19.1 µM (inactive) in assay [6]. In addition, the GI50 was 8.57 µM (inactive) in [7]; 3.96 µM (inactive) in assay [8]; 4.34 µM (inactive) in [9]; 11.4 µM (inactive) in [13]; 5.5 µM (inactive) in assay [10]; 12 µM (inactive) in [12].

Turning to `CCOC(=O)/C=C1\Nc2ccccc2C(c2ccccc2)=NC1OC(C)=O` (configuration not stated), the GI50 was > 100 µM (inactive) in [1]; 31.9 µM (inactive) in [2]; > 100 µM (inactive) in assay [3]; > 100 µM (inactive) in assay [4]; > 100 µM (inactive) in assay [5]; 57.5 µM (inactive) in [7]. Also, the GI50 in assay [8] was > 100 µM (inactive); in assay [9] it was 99.1 µM (inactive); in assay [10], > 100 µM (inactive); in [11] it was > 100 µM (inactive); in [12] it was > 100 µM (inactive).

Take `Cc1ccc(NCCO)cc1`: the GI50 in assay [1], in assay [2], in [3], in assay [4], in [5] and in [6] was > 100 µM (inactive) each time. The GI50 in assay [7] is > 100 µM (inactive); in assay [8], > 100 µM (inactive); in assay [9] it was > 100 µM (inactive); in assay [13], > 100 µM (inactive); in assay [10], 85.1 µM (inactive); in [12] it was > 100 µM (inactive).

For the compound `c1ccc(P(=Nc2ccccc2N=P(c2ccccc2)(c2ccccc2)c2ccccc2)(c2ccccc2)c2ccccc2)cc1`, the GI50 in assay [1] was 0.498 µM (active); in assay [2] it was 0.371 µM (active); in assay [3] it was 0.274 µM (active); in assay [4], > 100 µM (inactive); in [5] it was 0.869 µM (active); in assay [6] it was 0.333 µM (active). For the same compound, the GI50 in assay [7] is 1.3 µM (inactive); in [8], 0.593 µM (active); in assay [13], 0.337 µM (active); in assay [11], 0.942 µM (active); in [12], 0.401 µM (active).

Take `CCc1cccc(C(C)C)c1N1C(=O)C(=O)C(c2nc3ccccc3s2)C(=O)C1=O`: the GI50 was > 50 µM (inactive) in assay [1]; > 50 µM (inactive) in assay [2]; 17.7 µM (inactive) in assay [3]; > 50 µM (inactive) in assay [4]; > 50 µM (inactive) in [5]; > 50 µM (inactive) in assay [6]. Further, the GI50 in assay [7] is > 30.6 µM (inactive); in [8] it was 20 µM (inactive); in assay [10] it was 12.6 µM (inactive); in assay [11], > 50 µM (inactive); in assay [12], 21.8 µM (inactive).

With `COc1cccc(NC(=O)/C(CC(=O)CC(c2ccccc2)c2c(O)c3ccccc3oc2=O)=N\NC(C)(C)C)c1OC` (configuration not stated), the GI50 in assay [1] is 64.3 µM (inactive); in assay [2] it was 27.7 µM (inactive); in [4], > 100 µM (inactive); in assay [5], 34.4 µM (inactive); in assay [6] it was > 100 µM (inactive); in [8] it was 69 µM (inactive). Also, the values for the GI50 in assay [10], in assay [11] and in assay [12] were 28.7 µM (inactive), 40.9 µM (inactive) and > 100 µM (inactive), respectively.

Take `CC(C)(CN1CCOCC1)C(=O)/C=C/c1ccc(/C=C/C(=O)C(C)(C)CN2CCOCC2)cc1`: the GI50 in [1] is 2.09 µM (inactive); in assay [2] it was 1.94 µM (inactive); in assay [3], 0.278 µM (active); in [4] it was 1.77 µM (inactive); in assay [5], 1.52 µM (inactive); in assay [6] it was 1.55 µM (inactive). For the same compound, the GI50 was 0.467 µM (active) in [7]; 0.408 µM (active) in assay [8]; 2.29 µM (inactive) in assay [13]; 0.281 µM (active) in assay [10]; 1.83 µM (inactive) in assay [11]; 1.79 µM (inactive) in assay [12].

Consider `Nc1nc[n+](Cc2ccccc2CCO)c2[nH]cnc12`, for which the GI50 in assay [1], in assay [2], in assay [3], in [4], in assay [5] and in assay [6] was > 100 µM (inactive) in each case. Also, the GI50 was > 100 µM (inactive) in assay [7], 36.5 µM (inactive) in assay [13], > 100 µM (inactive) in assay [10] and > 100 µM (inactive) in [12].

Take `COC(=O)c1cc(Cl)ccc1NC(=O)c1ccc([N+](=O)[O-])cc1`: the GI50 in assay [1] is 19.8 µM (inactive); in [2] it was 6.73 µM (inactive); in assay [4], 28.2 µM (inactive); in assay [5], 5.97 µM (inactive); in [7], 14.8 µM (inactive); in assay [8] it was 4.78 µM (inactive). Also, the GI50 in [13] is 20.3 µM (inactive); in [10] it was 35.6 µM (inactive); in assay [11] it was 29.2 µM (inactive); in assay [12] it was 47.5 µM (inactive).

For the origin of these results see ChEMBL document CHEMBL1201862, “PubChem BioAssay data set” (2004).
